Legend:
[1] = molecular target: T1, cortical CCK receptor (Cavia porcellus, UniProt H0VZC5); experiment: Radioligand binding ([125I]Bolton-Hunter CCK8) in guinea pig cerebral cortical membranes; details: displacement of [125I]BH-CCK8, cortical membranes, 30°C for 150 min, Hill analysis; read-out: IC₅₀ (nM) cortex
T1 construct: Cortical and pancreatic membranes were prepared as described; from tissue; host or cells: guinea pig cerebral cortex membranes
T1 sequence (H0VZC5 1-426): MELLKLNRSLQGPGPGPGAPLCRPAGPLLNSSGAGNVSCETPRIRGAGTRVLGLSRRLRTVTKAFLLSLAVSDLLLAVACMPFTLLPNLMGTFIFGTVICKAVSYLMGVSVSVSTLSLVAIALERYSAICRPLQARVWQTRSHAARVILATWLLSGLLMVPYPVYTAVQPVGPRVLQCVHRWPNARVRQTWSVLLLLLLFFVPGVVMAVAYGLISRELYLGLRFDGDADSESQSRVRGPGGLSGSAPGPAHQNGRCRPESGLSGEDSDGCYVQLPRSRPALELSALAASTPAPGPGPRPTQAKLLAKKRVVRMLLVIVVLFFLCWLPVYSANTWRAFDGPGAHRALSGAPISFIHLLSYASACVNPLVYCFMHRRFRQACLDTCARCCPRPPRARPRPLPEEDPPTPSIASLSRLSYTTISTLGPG
From the text: Protocol for Radioligand Binding Experiments in Guinea Pig Cerebral Cortical and Pancreatic Membrance Preparations
CCK8 (Asp-Tyr(SO₃H)-Met-Gly-Trp-Met-Asp-Phe-NH₂), bestatin and phosphormaidon were purchased from Peptide International (Louisville, KY). EGTA, HEPES, BSA were purchased from Sigma Chemical Co. (St. Louis, MO). [¹²⁵I]-Bolton-Hunter CCK8 (BH-CCK8) (specific activity, 2200 Ci, mmol) was obtained from New England Nuclear (Boston, MA). Male ginea pigs, 250 to 325 g, were obtained from Scientific Small Animal Laboratory and Farm (Arlington Heights, IL). Collangenase, code CLSPA was purchased from Worthington (Frehold, NJ).
Cortical and pancreatic membranes were prepared as described (Lin and Miller; J. Pharmacol. Exp. Ther. 232, 775-780, 1985). In brief, pancreas and cortex were removed and rinsed with ice-cold saline. Visible fat and connective tissues were removed from the pancreas. Tissues were weighed and homogenized in approximately 25 mL of ice-cold 50 mM Tris-HCl buffer, pH 7.4 at 4°C with a Brinkman Polytron for 30 sec, setting 7. The homogenates were centrifuged for 10 min at 1075 x g and the pellet was discarded. The supernantants were saved and centrifuged at 38,730 x g for 20 min. The resultant pellets were rehomogenized in 25 mL of 50 mM Tris-HCl buffer with a Teflon-glass homogenizer, 5 up and down strokes. The homogenates were centrifuged again at 38,730 x g for 20 min. The pellets were then resuspended in 20 mM HEPES, containing 1 mM EGTA, 118 mM NaCl, 4.7 mM KCl, 5mM MgCl₂, 100 uM bestatin, 3 uM phosphoramidon, pH 7.4 at 22°C with a Teflon-glass homogenizer, 15 up and down strokes. The resuspension volume used for the cortex was 15 mL per g of original wet weight and 60 mL per g for pancreas.
[¹²⁵I]Bolton-Hunter CCK8 and test compounds were diluted with HEPES-EGTA-salt buffer (see above) containing 0.5% bovine serum albumin (BSA). To 1 mL Skatron polystyrene tubes were added 25 uL of test compounds, 25 uL of [¹²⁵I]BH-CCK8 and 200 uL of membrane suspension. The final BSA concentration was 0.1%. The cortical tissues were incubated at 30°C for 150 min. and pancreatic tissues were incubated at 37°C for 150 min. Incubations were terminated by filtration using Skatron Cell Harvester and SS32 microfiber filter mats. The specific binding of [¹²⁵I]BH-CCK8, defined as the difference betwen binding in the absence and presence of 1 uM CCK8, was 85-90% of total binding in cortex and 90-95% in pancreas. IC₅₀s were determined from the Hill analysis.

[2] = tested on: VTA neurons; experiment: Potentiation of ethanol-induced excitation of VTA neurons in rat brain slices (extracellular recording); format: cell-based, Sprague-Dawley rats; details: ethanol 80 to 160 mM, agonist infused at least 10 minutes before ethanol
Experimental: Brain slices form Sprague-Dawley rats (100-200 gm) containing the ventral tegmental area were prepared as previously described (Brodie and Dunwiddie, Brain Research, 425, 106 (1987)). Animals used in this study were treated in strict accordance with the NIH Guide for the Care and use of Laboratory Animals. Coronal sections (400 um thick) were cut and the tissue was place directly in the recording chamber. Small platinum weights were placed on the slice to increase the stability of recordings. The slice was covered with medium and a superfusion system then maintained the flow of medium at 2 ml/min; the temperature in the recording chamber was kept at 35°C. […] The flow rate was continuously monitored with a flowmeter and adjustable valves were used to keep the rate constant. […]
Ethanol and the CCK agonist compound were added to the aCSF in the fluid delivery tubing by means of a calibrated infusion pump from stock solutions 100 to 1000 times the desired final concentrations. Final concentrations were calculated from aCSF flow rate, pump infusion rate and concentration of drug stock solution. […]
Frequency of firing was determined using a window discriminator and ratemeter, the output of which was fed to a chart recorder. […]

IC50 [1]: 0.7 nM
SMILES: CCC[C@H]1CCN(C(=O)[C@@H]2Cc3c[nH]c4cccc(c34)CC(=O)N2)[C@@H]1C(=O)N[C@@H](CC(=O)O)C(=O)N[C@@H](Cc1ccccc1)C(N)=O [Example 48, Ctp-Tpp-Asp-Phe-NH₂]
effect on excitatory effect of ethanol on VTA neurons (firing rate) [2]: increases the excitatory effect of ethanol on VTA neurons

— patent publication EP0405506A1, “Tetrapeptide type-B CCK receptor ligands” (ABBOTT LABORATORIES, priority 1989, dated 1991)
